Assays:
[1] = molecular target: GDP-bound NRAS wild-type protein (Homo sapiens, UniProt P01111); test: Binding to NRAS by surface plasmon resonance (SPR), Single Cycle Kinetics; conditions: KD ratio, GDP-bound NRAS wild-type vs GDP-bound KRAS wild-type, SPR
[2] = molecular target: GDP-bound HRAS wild-type protein (Homo sapiens, UniProt P01112); test: Binding to HRAS by surface plasmon resonance (SPR), Single Cycle Kinetics; conditions: KD ratio, GDP-bound HRAS wild-type vs GDP-bound KRAS wild-type, SPR
GDP-bound HRAS wild-type protein, sequence (P01112 whole entry): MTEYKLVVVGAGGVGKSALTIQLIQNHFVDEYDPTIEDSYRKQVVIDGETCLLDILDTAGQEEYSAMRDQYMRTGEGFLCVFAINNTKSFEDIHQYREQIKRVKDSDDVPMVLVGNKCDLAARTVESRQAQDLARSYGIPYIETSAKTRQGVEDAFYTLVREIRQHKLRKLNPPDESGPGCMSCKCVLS

GDP-bound NRAS wild-type protein, sequence (P01111 whole entry): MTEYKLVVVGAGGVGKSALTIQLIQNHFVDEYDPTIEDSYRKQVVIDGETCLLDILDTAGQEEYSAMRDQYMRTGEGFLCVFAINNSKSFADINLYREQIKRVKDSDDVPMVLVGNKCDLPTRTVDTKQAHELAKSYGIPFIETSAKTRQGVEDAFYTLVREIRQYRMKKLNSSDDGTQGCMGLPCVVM

Row | Structure (SMILES) | NRAS/KRAS (ratio of KD value with respect to NRAS to KD value with respect to KRAS) [1] | HRAS/KRAS (ratio of KD value with respect to HRAS to KD value with respect to KRAS) [2]
1 | CCO[C@@H]1C[C@H]2C(=O)NC3(CCC3)C(=O)N(C)[C@@H](C3CCCC3)C(=O)N(C)[C@H](C(=O)N(C)C)CC(=O)N(C)[C@@H](CC(C)C)C(=O)N[C@@H]([C@@H](C)CC)C(=O)N(C)CC(=O)N(C)[C@H]3CCCCCN(C3=O)[C@@H](Cc3ccc(F)cc3)C(=O)N(C)CC(=O)N[C@@H](CCc3ccc(C(F)(F)F)c(Cl)c3)C(=O)N2C1 [PP0972] | B (a compound having 3 or more and less than 10 is denoted as B) | B (a compound having 3 or more and less than 10 is denoted as B)
2 | CC[C@H](C)[C@@H]1NC(=O)[C@H](CC(C)C)N(C)C(=O)C[C@@H](C(=O)N(C)C)N(C)C(=O)[C@H](C2CCCC2)N(C)C(=O)C2(CCC2)NC(=O)[C@@H]2CC(F)(F)CN2C(=O)[C@H](CCc2ccc(C(F)(F)F)c(Cl)c2)NC(=O)CN(C)C(=O)[C@H](Cc2ccc(F)cc2)N2CCCCC[C@@H](C2=O)N(C)C(=O)CN(C)C1=O [PP0973] | B (a compound having 3 or more and less than 10 is denoted as B) | B (a compound having 3 or more and less than 10 is denoted as B)
3 | CCO[C@@H]1C[C@H]2C(=O)NC3(CCC3)C(=O)N(C)[C@@H](C3CCCC3)C(=O)N(CCC3CCCC3)[C@H](C(=O)N(C)C)CC(=O)N(C)[C@@H](CC(C)C)C(=O)N[C@@H]([C@@H](C)CC)C(=O)N(C)CC(=O)N(C)[C@H]3CCCCCN(C3=O)[C@@H](Cc3ccc(F)cc3)C(=O)N(C)CC(=O)N[C@@H](CCc3ccc(C(F)(F)F)c(Cl)c3)C(=O)N2C1 [PP0976] | B (a compound having 3 or more and less than 10 is denoted as B) | B (a compound having 3 or more and less than 10 is denoted as B)
4 | CC[C@H](C)[C@@H]1NC(=O)[C@H](CC(C)C)N(C)C(=O)C[C@@H](C(=O)N(C)C)N(CCC2CCCC2)C(=O)[C@H](C2CCCC2)N(C)C(=O)C2(CCC2)NC(=O)[C@@H]2CC(F)(F)CN2C(=O)[C@H](CCc2ccc(C(F)(F)F)c(Cl)c2)NC(=O)CN(C)C(=O)[C@H](Cc2ccc(F)cc2)N2CCCCC[C@@H](C2=O)N(C)C(=O)CN(C)C1=O [PP0977] | B (a compound having 3 or more and less than 10 is denoted as B) | A (a compound having 10 or more and less than 20 is denoted as A)
5 | CCO[C@@H]1C[C@H]2C(=O)NC3(CCC3)C(=O)N(C)[C@@H](C3CCCC3)C(=O)N(C)[C@H](C(=O)N(C)C)CC(=O)N(C)[C@@H](CC)C(=O)N[C@@H]([C@@H](C)CC)C(=O)N(C)CC(=O)N(C)[C@H]3C/C=C\CCN(C3=O)[C@@H](Cc3ccc(C(F)(F)F)cc3)C(=O)N(C)CC(=O)N[C@@H](CCc3ccc(C(F)(F)F)c(Cl)c3)C(=O)N2C1 [PP0978] | A (a compound having 10 or more and less than 20 is denoted as A) | B (a compound having 3 or more and less than 10 is denoted as B)
6 | CCO[C@@H]1C[C@H]2C(=O)NC3(CCC3)C(=O)N(C)[C@@H](C3CCCC3)C(=O)N(CC)[C@H](C(=O)N3CCOCC3)CC(=O)N(C)[C@@H](CC)C(=O)N[C@@H]([C@@H](C)CC)C(=O)N(C)CC(=O)N(C)[C@H]3C/C=C\CCN(C3=O)[C@@H](Cc3ccc(C(F)(F)F)cc3)C(=O)N(C)CC(=O)N[C@@H](CCc3cc(F)c(C(F)(F)F)c(F)c3)C(=O)N2C1 [PP0979] | AA (a compound having 20 or more is denoted as AA) | A (a compound having 10 or more and less than 20 is denoted as A)
7 | CCO[C@@H]1C[C@H]2C(=O)NC3(CCC3)C(=O)N(C)[C@@H](C3CCCC3)C(=O)N(CC)[C@H](C(=O)N(C)C)CC(=O)N(C)[C@@H](CC)C(=O)N[C@@H]([C@@H](C)CC)C(=O)N(C)CC(=O)N(C)[C@H]3C/C=C\CCN(C3=O)[C@@H](Cc3ccc(C(F)(F)F)cc3)C(=O)N(C)CC(=O)N[C@@H](CCc3cc(F)c(C(F)(F)F)c(F)c3)C(=O)N2C1 [PP0980] | A (a compound having 10 or more and less than 20 is denoted as A) | B (a compound having 3 or more and less than 10 is denoted as B)
8 | CCO[C@@H]1C[C@H]2C(=O)NC3(CCC3)C(=O)N(C)[C@@H](C3CCCC3)C(=O)N(CCC3CCCC3)[C@H](C(=O)N3CCOCC3)CC(=O)N(C)[C@@H](CC)C(=O)N[C@@H]([C@@H](C)CC)C(=O)N(C)CC(=O)N(C)[C@H]3C/C=C\CCN(C3=O)[C@@H](Cc3ccc(C(F)(F)F)cc3)C(=O)N(C)CC(=O)N[C@@H](CCc3cc(F)c(C(F)(F)F)c(F)c3)C(=O)N2C1 [PP0981] | AA (a compound having 20 or more is denoted as AA) | A (a compound having 10 or more and less than 20 is denoted as A)
9 | CCO[C@@H]1C[C@H]2C(=O)NC3(CCC3)C(=O)N(C)[C@@H](C3CCCC3)C(=O)N(CCC3CCCC3)[C@H](C(=O)N(C)C)CC(=O)N(C)[C@@H](CC)C(=O)N[C@@H]([C@@H](C)CC)C(=O)N(C)CC(=O)N(C)[C@H]3C/C=C\CCN(C3=O)[C@@H](Cc3ccc(C(F)(F)F)cc3)C(=O)N(C)CC(=O)N[C@@H](CCc3cc(F)c(C(F)(F)F)c(F)c3)C(=O)N2C1 [PP0982] | AA (a compound having 20 or more is denoted as AA) | A (a compound having 10 or more and less than 20 is denoted as A)
10 | CCO[C@@H]1C[C@H]2C(=O)NC3(CCC3)C(=O)N(C)[C@@H](C3CCCC3)C(=O)N(C)[C@H](C(=O)N(C)C)CC(=O)N(C)[C@@H](CC)C(=O)N[C@@H]([C@@H](C)CC)C(=O)NCC(=O)N(C)[C@H]3C/C=C\CCN(C3=O)[C@@H](Cc3ccc(C(F)(F)F)cc3)C(=O)N(C)CC(=O)N[C@@H](CCc3cc(F)c(C(F)(F)F)c(F)c3)C(=O)N2C1 [PP0983] | A (a compound having 10 or more and less than 20 is denoted as A) | A (a compound having 10 or more and less than 20 is denoted as A)
11 | CCO[C@@H]1C[C@H]2C(=O)NC3(CCC3)C(=O)N(C)[C@@H](C3CCCC3)C(=O)N(C)[C@H](C(=O)N(C)C)CC(=O)N(C)[C@@H](CC)C(=O)N[C@@H]([C@@H](C)CC)C(=O)N3CC[C@H]3C(=O)N(C)[C@H]3C/C=C\CCN(C3=O)[C@@H](Cc3ccc(C(F)(F)F)cc3)C(=O)N(C)CC(=O)N[C@@H](CCc3cc(F)c(C(F)(F)F)c(F)c3)C(=O)N2C1 [PP0984] | A (a compound having 10 or more and less than 20 is denoted as A) | A (a compound having 10 or more and less than 20 is denoted as A)
12 | CCO[C@@H]1C[C@H]2C(=O)NC3(CCC3)C(=O)N(C)[C@@H](C3CCCC3)C(=O)N(C)[C@H](C(=O)N(C)C)CC(=O)N(C)[C@@H](CC)C(=O)N[C@@H]([C@@H](C)CC)C(=O)N(C)CC(=O)N(C)[C@H]3CCCCN(C3=O)[C@@H](Cc3ccc(C(F)(F)F)cc3)C(=O)N(C)CC(=O)N[C@@H](CCc3cc(Cl)c(C(F)(F)F)c(Cl)c3)C(=O)N2C1 [PP0985] | C (A compound having a KD ratio of 0.1 or more and less than 3 is denoted as C) | C (A compound having a KD ratio of 0.1 or more and less than 3 is denoted as C)

Reference: patent publication US20250230193A1, “CYCLIC COMPOUND HAVING SELECTIVE KRAS INHIBITORY EFFECT ON HRAS AND NRAS” (CHUGAI SEIYAKU KABUSHIKI KAISHA, priority 2022, published 2025)
